{"source": "patent EP2636410A1", "about": "“Utilization of the dichlorido complexes of platinum with 7-azaindole halogeno-derivatives for the preparation of drugs for the treatment of tumour diseases” (Univerzita Palackeho, priority 2012, dated 2013)", "assay_in_all_cases": "In vitro cytotoxicity, MTT micro-titration analysis", "format_in_all_cases": "cell-based", "key": {"[1]": {"system": "human cancer cell line of prostate carcinoma LNCaP", "conditions": "LNCaP cells, 24 h incubation with complex, read-out: inhibition concentrations IC50", "protocol": "(§1) The cytotoxic activities of the prepared complexes, as it is given below in the examples 1-6, were tested by micro-titration analysis using 3-(4,5-dimethylthiazol-2-yl)-2,5-diphenyltetrazolium bromide (MTT). The test detected living cells, whose number corresponds to the reduced MTT quantity. In vitro cytotoxicity was tested against the following human cancer cells: lung carcinoma A549, malignant melanoma G361, cervix carcinoma HeLa, ovarian carcinoma A2780, cisplatin-resistant ovarian carcinoma A2780R and prostate carcinoma LNCaP. The cells were maintained in plastic tissue culture flasks in the DMEM medium (5 g/L of glucose, 2 mM of glutamine, 100 U/mL of penicillin, 100 µg/mL of streptomycine, 10% fetal calf serum and sodium hydrogen carbonate) for cell cultures. The cell suspensions (ca 1.25 x 10^5 cells mL^-1) were pipetted (80 µL) into 96-well microplates. They were incubated at 37 °C in the CO2 atmosphere for 24 h. The tested dichlorido complexes of platinum were dissolved in N,N'-dimethylformamide (DMF) and diluted to the 50.0 mM concentration - these solutions represent the stock solutions. […]\nThe in vitro antitumor activity of the studied complexes cis-[PtCl2(L2)2] […] (3) against human cancer cell line of prostate carcinoma LNCaP was determined by the above-described micro-titration analysis using MTT (L2 = 3-chloro-7-azaindole, L3 = 3-iodo-7-azaindole, L6 = 5-bromo-7-azaindole)."}, "[2]": {"system": "human cancer cell line of ovarian carcinoma A2780", "conditions": "A2780 cells, 24 h incubation with complex, read-out: inhibition concentrations IC50", "protocol": "as §1\nThe in vitro antitumor activity of the studied complexes cis-[PtCl2(L2)2] […] (3) against human cancer cell line of ovarian carcinoma A2780 was determined by the above-described micro-titration analysis using MTT (L2 = 3-chloro-7-azaindole, L3 = 3-iodo-7-azaindole, L6 = 5-bromo-7-azaindole)."}, "[3]": {"system": "human cancer cell line of cervix carcinoma HeLa", "conditions": "HeLa cells, 24 h incubation with complex, read-out: inhibition concentrations IC50", "protocol": "as §1\nThe in vitro antitumor activity of the studied complexes cis-[PtCl2(L2)2] […] (3) against human cancer cell line of cervix carcinoma HeLa was determined by the above-described micro-titration analysis using MTT (L2 = 3-chloro-7-azaindole, L3 = 3-iodo-7-azaindole, L6 = 5-bromo-7-azaindole)."}, "[4]": {"system": "human cancer cell line of malignant melanoma G361", "conditions": "G361 cells, 24 h incubation with complex, read-out: inhibition concentrations IC50", "protocol": "as §1\nThe in vitro antitumor activity of the studied complexes cis-[PtCl2(L2)2] […] (3) against human cancer cell line of malignant melanoma G361 was determined by the above-described micro-titration analysis using MTT (L2 = 3-chloro-7-azaindole, L3 = 3-iodo-7-azaindole, L6 = 5-bromo-7-azaindole)."}, "[5]": {"system": "human cancer cell line of lung carcinoma A549", "conditions": "A549 cells, 24 h incubation with complex, read-out: inhibition concentrations IC50", "protocol": "as §1\nThe in vitro antitumor activity of the studied complexes cis-[PtCl2(L2)2] […] (3) against human cancer cell line of lung carcinoma A549 was determined by the above-described micro-titration analysis using MTT (L2= 3-chloro-7-azaindole, L3 = 3-iodo-7-azaindole, L6 = 5-bromo-7-azaindole)."}, "[6]": {"system": "human cancer cell line of cisplatin-resistant ovarian carcinoma A2780R", "conditions": "A2780R cells, 24 h incubation with complex, read-out: inhibition concentrations IC50", "protocol": "as §1, with “h.” for “h. The tested dichlorido complexes of platinum were dissolved in N,N'-dimethylformamide (DMF) and diluted to the 50.0 mM concentration - these solutions represent the stock solutions.”\nThe in vitro antitumor activity of the studied complexes cis-[PtCl2(L2)2] […] (3) against human cancer cell line of cisplatin-resistant ovarian carcinoma A2780R was determined by the above-described micro-titration analysis using MTT (L2 = 3-chloro-7-azaindole, L3 = 3-iodo-7-azaindole, L6 = 5-bromo-7-azaindole)."}}}
{"smiles": "N.N.[Cl][Pt][Cl]", "note": "[cisplatin, Cis-diammine-dichloridoplatinum(II) complex, reference compound]", "values": [{"measurement": "IC50", "setting": "[1]", "result": "3.8 ± 1.5", "unit": "µM"}, {"measurement": "IC50", "setting": "[2]", "result": "12 ± 0.8", "unit": "µM"}, {"measurement": "IC50", "setting": "[3]", "result": "10 ± 2.6", "unit": "µM"}, {"measurement": "IC50", "setting": "[4]", "result": "3.4 ± 0.1", "unit": "µM"}, {"measurement": "IC50", "setting": "[5]", "result": "25.8 ± 7.1", "unit": "µM"}, {"measurement": "IC50", "setting": "[6]", "result": "27 ± 4.6", "unit": "µM"}]}
